Data from PubChem BioAssay AID1919001 (Molecular Pharmacology Branch, DTP, NCI, 2023).
Values joined by “and” are separate entries in the source; they are usually repeats but may differ in a detail not shown here. Identical values can stand only once.

Tested on: 699152-130-R-J1-PDC complex spheroid growth
Experiment: Anticancer human tumor 699152-130-R-J1-PDC patient-derived pancreatic carcinoma cell line growth inhibition [AhR]
Details: for viability, T/C: stronger effect = lower value
Summary of the method: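 Spheroids combined tumor cells with HUVEC endothelial cells and human MSCs as stroma. AhR antagonists were paired with standard or investigational drugs, each dosed in half-log steps down from near clinical Cmax, or from 10 microM where Cmax was unknown.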

[1] = curve of first compound, second compound 0.1 µM
[2] = curve of first compound, second compound 0.316 µM
[3] = curve of first compound, second compound 1 µM
[4] = curve of first compound, second compound 3.16 µM
[5] = curve of first compound, second compound 10 µM
[6] = second compound 0.1 µM, first compound 0.000949 µM
[7] = second compound 0.1 µM, first compound 0.003 µM
[8] = second compound 0.1 µM, first compound 0.00949 µM
[9] = second compound 0.1 µM, first compound 0.03 µM
[10] = second compound 0.1 µM, first compound 0.0949 µM
[11] = second compound 0.1 µM, first compound 0.3 µM
[12] = second compound 0.316 µM, first compound 0.000949 µM
[13] = second compound 0.316 µM, first compound 0.003 µM
[14] = second compound 0.316 µM, first compound 0.00949 µM
[15] = second compound 0.316 µM, first compound 0.03 µM
[16] = second compound 0.316 µM, first compound 0.0949 µM
[17] = second compound 0.316 µM, first compound 0.3 µM
[18] = second compound 1 µM, first compound 0.000949 µM
[19] = second compound 1 µM, first compound 0.003 µM
[20] = second compound 1 µM, first compound 0.00949 µM
[21] = second compound 1 µM, first compound 0.03 µM
[22] = second compound 1 µM, first compound 0.0949 µM
[23] = second compound 1 µM, first compound 0.3 µM
[24] = second compound 3.16 µM, first compound 0.000949 µM
[25] = second compound 3.16 µM, first compound 0.003 µM
[26] = second compound 3.16 µM, first compound 0.00949 µM
[27] = second compound 3.16 µM, first compound 0.03 µM
[28] = second compound 3.16 µM, first compound 0.0949 µM
[29] = second compound 3.16 µM, first compound 0.3 µM
[30] = second compound 10 µM, first compound 0.000949 µM
[31] = second compound 10 µM, first compound 0.003 µM
[32] = second compound 10 µM, first compound 0.00949 µM
[33] = second compound 10 µM, first compound 0.03 µM
[34] = second compound 10 µM, first compound 0.0949 µM
[35] = second compound 10 µM, first compound 0.3 µM
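Note: compound exposure lasted 7 days after spheroids had grown for 3 days.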

SMILES: CCc1c2c(nc3ccc(O)cc13)-c1cc3c(c(=O)n1C2)COC(=O)[C@]3(O)CC + CC(CO)NC(=O)c1cc(-c2ccc(Cl)cc2)nn(-c2cnn(C)c2)c1=O
- IC50 [1]: 18.2 nM
- IC50 [2]: 26.4 nM
- IC50 [3]: 42.1 nM
- IC50 [4]: 22.1 nM
- IC50 [5]: 47.3 nM
- viability, T/C [6]: 89%
- viability, T/C [7]: 83.5%
- viability, T/C [8]: 56.5%
- viability, T/C [9]: 46.2%
- viability, T/C [10]: 48%
- viability, T/C [11]: 35.7%
- viability, T/C [12]: 83.3%
- viability, T/C [13]: 75.5%
- viability, T/C [14]: 58.9%
- viability, T/C [15]: 49.4%
- viability, T/C [16]: 44.8%
- viability, T/C [17]: 41.3%
- viability, T/C [18]: 85.7%
- viability, T/C [19]: 75.4%
- viability, T/C [20]: 61.3%
- viability, T/C [21]: 51.4%
- viability, T/C [22]: 47.2%
- viability, T/C [23]: 41.5%
- viability, T/C [24]: 72.3%
- viability, T/C [25]: 64.4%
- viability, T/C [26]: 57.2%
- viability, T/C [27]: 45.3%
- viability, T/C [28]: 42%
- viability, T/C [29]: 31.4%
- viability, T/C [30]: 71.9%
- viability, T/C [31]: 69.4%
- viability, T/C [32]: 61.7%
- viability, T/C [33]: 52.6%
- viability, T/C [34]: 45.9%
- viability, T/C [35]: 28.4%

SMILES: Nc1ncn(C2CC(O)C(CO)O2)c(=O)n1 (configuration not stated)
- viability, T/C (compound 0.00316 µM): 93.4% and 101% and 95.4%
- viability, T/C (compound 0.01 µM): 104% and 93.1% and 106%
- viability, T/C (compound 0.0316 µM): 93.1% and 93% and 94.8%
- viability, T/C (compound 0.1 µM): 91% and 96.5% and 87.2%
- viability, T/C (compound 0.316 µM): 96.5% and 84.4% and 102%
- viability, T/C (compound 1 µM): 92.9% and 87.3% and 89%
- IC50 (curve of compound): > 1000 nM

SMILES: CCc1c2c(nc3ccc(O)cc13)-c1cc3c(c(=O)n1C2)COC(=O)[C@]3(O)CC + Cc1cncc(-c2nc(NCCc3c[nH]c4ccccc34)c3ncn(C(C)C)c3n2)c1
- IC50 [1]: 38.9 nM
- IC50 [2]: 33.3 nM
- IC50 [3]: 69.6 nM
- IC50 [4]: 12.3 nM
- IC50 [5]: < 0.949 nM
- viability, T/C [6]: 96.7%
- viability, T/C [7]: 91.2%
- viability, T/C [8]: 60.3%
- viability, T/C [9]: 56.5%
- viability, T/C [10]: 41%
- viability, T/C [11]: 29%
- viability, T/C [12]: 92.4%
- viability, T/C [13]: 84.3%
- viability, T/C [14]: 61.3%
- viability, T/C [15]: 54.4%
- viability, T/C [16]: 37.6%
- viability, T/C [17]: 28.7%
- viability, T/C [18]: 102%
- viability, T/C [19]: 94.2%
- viability, T/C [20]: 70%
- viability, T/C [21]: 58.8%
- viability, T/C [22]: 50.9%
- viability, T/C [23]: 30.2%
- viability, T/C [24]: 74.8%
- viability, T/C [25]: 66%
- viability, T/C [26]: 49%
- viability, T/C [27]: 43.3%
- viability, T/C [28]: 32.2%
- viability, T/C [29]: 23.2%
- viability, T/C [30]: 10.7%
- viability, T/C [31]: 11.6%
- viability, T/C [32]: 12.5%
- viability, T/C [33]: 11.7%
- viability, T/C [34]: 9.62%
- viability, T/C [35]: 11%

SMILES: CC1COCCN1c1cc(C2(S(C)(=N)=O)CC2)nc(-c2ccnc3[nH]ccc23)n1 (configuration not stated) + Cc1ccccc1N=Nc1ccc(NC(=O)c2ccnn2C)c(C)c1
- IC50 [1]: > 10000 nM
- IC50 [2]: > 10000 nM
- IC50 [3]: > 10000 nM
- IC50 [4]: > 10000 nM
- IC50 [5]: > 10000 nM
- viability, T/C (second compound 0.1 µM, first compound 0.0316 µM): 109%
- viability, T/C (second compound 0.1 µM, first compound 0.1 µM): 109%
- viability, T/C (second compound 0.1 µM, first compound 0.316 µM): 86.1%
- viability, T/C (second compound 0.1 µM, first compound 1 µM): 88.9%
- viability, T/C (second compound 0.1 µM, first compound 3.16 µM): 88.4%
- viability, T/C (second compound 0.1 µM, first compound 10 µM): 73.7%
- viability, T/C (second compound 0.316 µM, first compound 0.0316 µM): 92%
- viability, T/C (second compound 0.316 µM, first compound 0.1 µM): 98%
- viability, T/C (second compound 0.316 µM, first compound 0.316 µM): 98.4%
- viability, T/C (second compound 0.316 µM, first compound 1 µM): 101%
- viability, T/C (second compound 0.316 µM, first compound 3.16 µM): 84.9%
- viability, T/C (second compound 0.316 µM, first compound 10 µM): 65.8%
- viability, T/C (second compound 1 µM, first compound 0.0316 µM): 90.5%
- viability, T/C (second compound 1 µM, first compound 0.1 µM): 101%
- viability, T/C (second compound 1 µM, first compound 0.316 µM): 99.5%
- viability, T/C (second compound 1 µM, first compound 1 µM): 95.9%
- viability, T/C (second compound 1 µM, first compound 3.16 µM): 84.8%
- viability, T/C (second compound 1 µM, first compound 10 µM): 65.3%
- viability, T/C (second compound 3.16 µM, first compound 0.0316 µM): 105%
- viability, T/C (second compound 3.16 µM, first compound 0.1 µM): 97%
- viability, T/C (second compound 3.16 µM, first compound 0.316 µM): 97.9%
- viability, T/C (second compound 3.16 µM, first compound 1 µM): 99%
- viability, T/C (second compound 3.16 µM, first compound 3.16 µM): 79.2%
- viability, T/C (second compound 3.16 µM, first compound 10 µM): 69.8%
- viability, T/C (second compound 10 µM, first compound 0.0316 µM): 111%
- viability, T/C (second compound 10 µM, first compound 0.1 µM): 125%
- viability, T/C (second compound 10 µM, first compound 0.316 µM): 112%
- viability, T/C (second compound 10 µM, first compound 1 µM): 104%
- viability, T/C (second compound 10 µM, first compound 3.16 µM): 94.8%
- viability, T/C (second compound 10 µM, first compound 10 µM): 80.6%
